Measurements as given in US20080199423A1, “Methods of Using Apo2l Receptor Agonists and Ink Cell Activators” (GENENTECH, INC., priority 2004, published 2008).
“Also recorded” adds a separate entry of the source. The star is where a group is joined. Cbz = O=C(OCc1ccccc1)*; CH2F = FC*

What was measured:
[1] = system: cell surface Apo2L/TRAIL on NK cells; test: Flow cytometry of cell surface Apo2L/TRAIL on purified NK cells; type: cell-based, human; conditions: 5C2-Alexa 488 staining
Method: Cell surface Apo2L/TRAIL on purified NK cells treated with poly(I:C), R-848 or hIL-2 (30 ng/ml, BD Biosciences) was also analyzed by cytometry. Isotype control (IgG2a, Sigma) and anti-Apo2L/TRAIL antibody (5C2) were labeled with Alexa 488 (Molecular Probes). 5×10^5 cells were incubated with 2 μg of human IgG to block FcRs and 1 μg of the directly labeled mAbs at 4° C. for 45 minutes, followed by 2 washes. Stained cells were analyzed using a FACScan cytometer (Becton Dickenson) and Cellquest software.

B16BL10 melanoma cells = test: 51Cr release cytotoxicity assay on B16 melanoma target cells; type: cell-based, mouse
Method: (§1) Purified NK cells were treated with poly(I:C) or R-848 and incubated with B16BL10 melanoma cells (ATCC) at the indicated ratios. Purified NK cells stimulated with R-848 were incubated with HCT116 target cells (ATCC) at the indicated ratios. The role of Apo2L/TRAIL in lysis assays in panels B and C was determined by preincubation with neutralizing (5C2) and non-neutralizing (1D1) anti-Apo2L/TRAIL mAbs. The data has been confirmed with NK cells from at least 3 donors and less that 5% SD was observed.
(§2) For the cytotoxicity assays, target cells were labeled with 100 mCi ^51Cr for 1 hour at 37° C. and then washed 3 times before use. 10^4 target cells were added to varying numbers of effector cells at the indicated ratios and incubated in duplicate wells for 4 hours at 37° C., 5% CO2, and supernatants were used to determine ^51Cr released using a Gamma counter. The cytotoxicity assays were performed in round bottom 96 well plates and the percent specific lysis was calculated as 100× (experimental cpm-spontaneous cpm)/(total cpm-spontaneous cpm). The role of Apo2L/TRAIL expressed by NK cells in the lysis of target cells was evaluated using anti-Apo2L/TRAIL mAbs (5C2 and 1D1, Genentech, Inc.). Isotype control antibodies were obtained from BD Biosciences.

[2] = system: Apo2L/TRAIL mRNA in NK cells; test: RT-QPCR of Apo2L/TRAIL message in treated NK cells; type: cell-based, human
Method: In another experiment, the purified NK cells were treated for 18 hours in RPMI 1640 supplemented with heat inactivated 10% FCS, penicillin, streptomycin, 10 mM sodium pyruvate, 2 mM L-glutamine and 10 mM HEPES with poly(I:C) (50 μg/ml), R-848 (5 μg/ml) or hIFN-alpha (1000 U/ml, Sigma) in the presence or absence of 10 μg/ml cycloheximide and Apo2L/TRAIL was measured in the extracted RNA. RT-PCR was performed and the amount of cDNA was quantitated by RT-QPCR analysis, normalized to RPL19, and fold induction over control is shown in FIG. 2A. Primers were designed as per instructions (Primer Express) and sequences are: hRPL19-probe: […] (SEQ ID NO:7); hRPL19-For: […] (SEQ ID NO:8); hRPL19-Rev: […] (SEQ ID NO:9); hApo2L-probe: […] (SEQ ID NO:10); hApo2L-For: […] (SEQ ID NO:11); hApo2L-Rev: […] (SEQ ID NO:12). cDNA was analyzed for expression of RPL19 and Apo2L/TRAIL by RT-QPCR (Applied Biosystems) as described in Zarember et al., J. Immunol., 168(2):554-61 (2002). Fold increase values are expressed as arbitrary units, relative to the calibrator gene RPL19.

4T1 cells [3] = test: 51Cr release cytotoxicity assay, purified human NK cells on 4T1 target cells; type: cell-based, mouse; conditions: for Lysis of 4T1 cells by NK cells treated with TLR activating agent: NK cells treated for 18 hours with agent, 4 hour incubation, E:T 1:1 to 50:1
Method: 4T1 cells (a metastatic mammary carcinoma cell line derived from BALE/C mice, obtained from Fred Miller, Karmanos Cancer Institute) were assayed in an in vitro cytotoxicity assay to examine tumoricical effects of various Toll receptor (“TLR”) activators and NK cells. The 4T1 target cells were cultured in IDMEM medium supplemented with 10% FCS, glutamine and penicillin/streptomycin, labeled with 100 mCi ^51Cr for 1 hour at 37° C. and then washed three times with culture medium.
To prepare purified effector NK cells for the assay, PBMCs from healthy human donors were isolated by standard density-gradient centrifugation over Ficoll-Paque Plus (Pharmacia). CD3 positive cells were first depleted using anti-CD3 microbeads (obtained from Miltenyi), and then the NK cells were purified using anti-CD56 microbeads (Miltenyi). The purity of the NK cell preparation was 95% or higher as determined by staining with mouse anti-human CD56 PE and mouse anti-human CD14 PE conjugates (BD Biosciences). The isolated cells were cultured in RPMI 1640 supplemented with heat inactivated 10% FCS, penicillin, streptomycin, 10 mM sodium pyruvate, 2 mM L-glutamine and 10 mM HEPES.
10^4 of the labeled 4T1 cells were added to varying numbers of purified NK cells (either untreated control NK cells or NK cells treated with specific agent) at ratios of 1:1, 3:1, 6:1, 12:1, 25:1, and 50:1, respectively. NK cells were treated for 18 hours with one of the following TLR activating agents: sBLP (1 μg/ml, Bachem); poly(I:C) (50 μg/ml, Pharmacia); E. coli 055:B5 LPS (phenol extracted, 1 μg/ml, Sigma); Flagellin (1 μg/ml, A. Gewirtz, Emory Univerity); R-848 (5 μg/ml, Invivogen); CpG oligonucleotides (2006 and 2216, 5 μM, Invivogen). The cytotoxicity assays were performed in round bottom 96 well plates, and the samples were incubated in duplicate wells for 4 hours at 37° C., 5% CO2. RPMI 1640 supplemented with heat inactivated 10% FCS, penicillin, streptomycin, 10 mM sodium pyruvate, 2 mM L-glutamine and 10 mM HEPES was used during incubation.
After the 4 hour incubation, supernatants were aspirated from the wells and examined for ^51Cr release using a Gamma counter. The percent specific lysis was calculated as 100× (experimental cpm-spontaneous cpm)/(total cpm-spontaneous cpm). The data are representative of at least three experiments and <5% SD was observed.
A cytotoxicity assay was performed as described in Example 1, except for the following modifications. Purified NK cells were treated with poly(I:C) or R-848 overnight and incubated with 4T1 cells. The role of TNF-alpha, FasL, and Apo2L/TRAIL was evaluated by preincubation of the NK cells with neutralizing antibodies to the respective ligands. The following neutralizing antibodies were added at final concentration of 2 μg/ml: anti-Fas-L (mIgG2b, R&D Systems), anti-TNF-alpha (mIgG1, Genentech), and anti-Apo2L/TRAIL (5C2, mIgG2a, ATCC HB-12258 and 1D1, mIgG2b; ATCC HB-12257). Isotype control antibodies were obtained from BD Biosciences.
as §2

HCT116 cells = test: 51Cr release cytotoxicity assay on HCT116 target cells; type: cell-based
Method: as §1, §2

[4] = system: caspase-3 and PARP cleavage in 4T1 cells; test: Immunoblot for caspase-3 and PARP cleavage in 4T1 cells; type: cell-based, mouse
Method: (§3) The cytolytic activity of resting and activated NK cells was evaluated against 4T1 target cells. The activated NK cells were treated with inhibitors of Perforin maturation (concanamycin A), GraB (Z-AAD-FMK), PI3K (wortmannin), MEK1 kinase (PD98059), S6 kinase (rapamycin) and JNK (SP) to assess the role of cytotoxic granules. The E/T ratio was 25 to 1, and results shown are from one representative donor (out of three donors). […] 4T1 target cells were treated with Apo2L/TRAIL protein (100 ng/ml) or with activated NK cells (“Act NK”) for 30 minutes, 1 hour or 4 hours. The E/T ratio was 10:1. Extracts of the 4T1 cells were analysed by SDS-PAGE and immunoblot analysis for pro-caspase-3, cleaved caspase-3 and cleaved PARP.
4T1 cells were treated with Apo2L/TRAIL, resting NK cells (“NK”) or activated NK cells (“Act NK”) separately or in combination. The lysates were analyzed for cleavage of PARP, an indicator of caspase-3 activation. NK cells from multiple donors were utilized and results from one representative donor are shown. […]
Total cell extracts were prepared from 4T1 cells using lysis buffer (0.1 M Tris pH 8.0, 500 mM NaCl, 2 mM EDTA, […], 10% glycerol, supplemented with Complete Protease Inhibitor Cocktail, Roche), and the lysates were clarified by centrifugation at 16,000 rpm for 10 minutes at 4° C. […] Immune complexes were detected using enhanced chemiluminesence (Amersham).

SKMES-1 cells = test: 51Cr release by SKMES-1 cells incubated with soluble Apo2L/TRAIL; type: cell-based; conditions: range of concentrations, 4 hours
Method: The role of Apo2L/TRAIL was evaluated by preincubation of NK cells with either a neutralizing (5C2) or non-neutralizing (1D1) mAb. The % lysis was plotted, and the results are representative of 3 experiments (less than 5% SD was observed). […] The supernatants were then assessed for Cr release. Similar cytolysis results were obtained in at least 3 experiments.
as §2

4T1 cells [5] = test: Clonogenic potential of 4T1 cells; type: cell-based, mouse
Method: Since both cell surface Apo2L/TRAIL and perforin granules are essential for lysis of 4T1 cells, assays were conducted to examine if resting NK cells could be “armed” by the addition of soluble Apo-2L/TRAIL protein. There is precedence for membrane bound and soluble forms of TNF family members to display differential behavior upon application to the target cell. With the aim of corroborating the ^51Cr release assays, the clonogenic potential of 4T1 cells was evaluated by treatment with soluble Apo2L/TRAIL and resting NK cells.

C57MG = test: 51Cr release cytotoxicity assay on C57MG cells; type: cell-based, mouse
4T1 cells [6] = test: Lysis of 4T1 cells by activated NK cells treated with inhibitors; type: cell-based, mouse; conditions: E/T ratio 25 to 1
Method: as §3
For the cytotoxicity assays, target cells were labeled with 100 mCi ^51Cr for 1 hour at 37° C. and then washed 3 times before use. […] The cytotoxicity assays were performed in round bottom 96 well plates and the percent specific lysis was calculated as 100× (experimental cpm-spontaneous cpm)/(total cpm-spontaneous cpm). The role of Apo2L/TRAIL expressed by NK cells in the lysis of target cells was evaluated using anti-Apo2L/TRAIL mAbs (5C2 and 1D1, Genentech, Inc.). […]

In the case of `CCOCc1nc2c(N)nc3ccccc3c2n1CC(C)(C)O` [R-848], the “Cell surface expression of Apo2L/TRAIL on NK cells” value [1] is reported as “detectable cell surface expression”, the “Killing of B16 melanoma cells by stimulated NK cells” value (B16BL10 melanoma cells; NK cells stimulated with agent) is reported as “efficiently killed” and the “Increase of Apo2L/TRAIL mRNA over control” value ([2]; NK cells treated 18 hours, normalized to RPL19) is reported as 25 fold. The “Lysis of 4T1 cells by NK cells treated with TLR activating agent” value (4T1 cells [3]) was “efficiently killed” and the “Cytotoxicity of stimulated NK cells towards HCT116 cells” value (HCT116 cells; NK cells stimulated with agent) was “increased cytoxicity”.

Flagellin was tested, and the “Lysis of 4T1 cells by NK cells treated with TLR activating agent” value (4T1 cells [3]) was “neither BLP, LPS, Flagellin, nor the CpG oligonucleotides induced cytotoxic activity”.

With “Apo2L/TRAIL: recombinant Apo2L/TRAIL (amino acids 114-281), prepared as in Ashkenazi et al. 1999” the “Lysis of B16BL10 cells, Apo2L/TRAIL added to activated NK cells” value (B16BL10 melanoma cells; plus activated NK cells) was “no significant increase”, the “Lysis of B16BL10 cells, Apo2L/TRAIL added to resting NK cells” value (B16BL10 melanoma cells; plus resting NK cells) was “increased the lysis observed” and the “Apoptotic effect of Apo2L/TRAIL protein alone on B16 cells” value (B16BL10 melanoma cells; range of concentrations, no NK cells) was “certain resistance”. The “Cleavage of pro-caspase-3 and PARP in 4T1 cells, Apo2L/TRAIL alone” value ([4]; 100 ng/ml, 30 minutes, 1 hour or 4 hours) was “did not result in cleavage”, the “PARP cleavage in 4T1 cells, resting NK cells along with soluble Apo2L/TRAIL” value ([4]; combined treatment) was “production of cleaved PARP” and the “Lysis of 4T1 cells, Apo2L/TRAIL with resting NK cells” value (4T1 cells [3]; increasing concentrations of Apo2L/TRAIL plus resting NK cells) was “dose dependent lysis”. For the same molecule, the “Lysis of 4T1 cells, Apo2L/TRAIL added to activated NK cells” value (4T1 cells [3]; plus activated NK cells) was “Some increase”, the “Lysis of 4T1 cells by Apo2L/TRAIL protein alone” value (4T1 cells [3]; range of concentrations, up to 2 μg/ml, no NK cells) was “resistant to lysis; also recorded: certain resistance” and the “Cytotoxic effect on HCT116 cells, Apo2L/TRAIL with limiting ratios of resting NK cells” value (HCT116 cells; 5 ng/ml Apo2L/TRAIL plus resting NK cells) was “enhanced cytotoxic effect”. For the same molecule, the “Lysis of HCT116 cells by Apo2L/TRAIL alone” value (HCT116 cells; 5 ng/ml Apo2L/TRAIL, no NK cells) was “no lysis”, the “51Cr release by HCT-116 cells, Apo2L/TRAIL alone” value (HCT116 cells; range of concentrations, 4 hours) was “effectively mediated release” and the “51Cr release by SKMES-1 cells, Apo2L/TRAIL alone” value (SKMES-1 cells) was “effectively mediated release”. For the same molecule, the “Clones of 4T1 cells, simultaneous soluble Apo2L/TRAIL and resting NK cells” value (4T1 cells [5]; NK cells at ratio 25 to 1, after 5 days) was “dramatic reduction in clones”, the “Clonogenic capacity of 4T1 cells, soluble Apo2L/TRAIL alone” value (4T1 cells [5]; individual treatment) was “not affected in terms of clonogenic capacity” and the “Lysis of C57MG cells, Apo2L/TRAIL added to activated NK cells” value (C57MG; plus activated NK cells) was “no significant increase”. For the same molecule, the “Lysis of C57MG cells, Apo2L/TRAIL added to resting NK cells” value (C57MG; plus resting NK cells) was “increased the lysis observed”.

With `C[C@@H]1C[C@@H]([C@H](O)CC2CC(=O)NC(=O)C2)C(=O)[C@@H](C)C1` [cycloheximide] the “Effect of protein synthesis inhibitor on induction of Apo2L/TRAIL message in stimulated NK cells” value ([2]; 10 μg/ml cycloheximide, poly(I:C), R-848 or IFN-alpha stimulated) was “not blocked”.

In the case of Cbz-Ala-Ala-Asp-CH2F [GraB inhibitor], the “Effect of inhibitor treatment of activated NK cells on lysis of 4T1 cells” value (4T1 cells [6]) is reported as “reduction in lysis”.

In the case of `C/C=C/[C@H]1O[C@@](O)([C@@H](C)[C@H](O)[C@H](C)[C@H]2OC(=O)/C(OC)=C/C(C)=C/[C@@H](C)[C@@H](O)[C@@H](CC)[C@@H](O)[C@H](C)C/C(C)=C/C=C/[C@@H]2OC)C[C@@H](O[C@H]2C[C@@H](O)[C@H](OC(N)=O)[C@@H](C)O2)[C@@H]1C` [Concanamycin A], the “Effect of inhibitor treatment of activated NK cells on lysis of 4T1 cells” value (4T1 cells [6]) is reported as “blocked the cytotoxic activity”.
